Measured values from ChEMBL document CHEMBL5154827, “Discovery of S-217622, a Noncovalent Oral SARS-CoV-2 3CL Protease Inhibitor Clinical Candidate for Treating COVID-19” (J Med Chem, 2022).

Assays:
[1] = tested on: SARS-CoV-2; experiment: In vivo antiviral activity against SARS CoV-2 Gamma strain (hCoV-19/Japan/TY7-501/202) harbouring spike protein K417T mutant intranasally inoculated in BALB/c mouse assessed as reduction in lung intrapulmonary viral titer administered orally immediately after viral infection and 12 hrs after infection measured after 24 hrs of post infection; format: functional, organism-based; conditions: Severe acute respiratory syndrome coronavirus 2, route po, DDE = dose-dependent effect
[2] = tested on: SARS-CoV-2; experiment: In vivo antiviral activity against SARS CoV-2 gamma strain (hCoV-19/Japan/TY7-501/202) harbouring spike protein K417T mutant intranasally inoculated in BALB/c mouse assessed as reduction in lung intrapulmonary viral titer at 16 to 32 mg/kg, po immediately after viral infection and 12 hrs after viral infection measured after 24 hrs of post infection; format: functional, Severe acute respiratory syndrome coronavirus 2; conditions: dose 16-32 mg/kg

In the case of `Cn1cnc(Cn2c(=O)[nH]/c(=N\c3cc4cn(C)nc4cc3Cl)n(Cc3cc(F)c(F)cc3F)c2=O)n1`, the Activity [1] is reported as “Dde” and the TCID50 [2] is reported as 1.8 log10/ml.
